Reference: patent US5763435A, “Sulfate conjugates of ursodeoxycholic acid, and their beneficial use in inflammatory disorders” (priority 1995, dated 1998)
Values joined by “and” are separate entries in the source; they are usually repeats but may differ in a detail not shown here. Identical values can stand only once.

Tests used:
[1] = Urinary excretion of UDCA after oral administration; format: in vivo, Sprague-Dawley rats
Procedure: (§1) Male Sprague-Dawley rats (Harlan Sprague-Dawley, Inc., Indianapolis, Ind.), weighing 210-290 g, were maintained on a 12-hour light-dark cycle and fed standard laboratory chow ad libitum for 3 days. The animals were then transferred to metabolic cages in which they were housed individually and fed the same diet. UDCA, UDCA 3-sulfate, UDCA 7-sulfate, and UDCA 3,7-disulfate were administered by gavage at a dose of 250 mg/day for 4 consecutive days. Each group comprised 3-6 rats. Body weights of the animals were measured each day. On day 5, the animals were killed by exsanguination under ether anesthesia. Plasma was collected and frozen at -20° C. The liver was removed, rinsed in normal saline, and flash-frozen in liquid nitrogen. Urine and feces were collected every 24 hours and frozen at -20° C. All animals received humane care in compliance with the "Guide for the Care and Use of Laboratory Animals" prepared by the National Academy of Sciences (National Institutes of Health publication no. 86-23, revised in 1985).
In each group, urine from all animals was pooled on the individual days of collection. Day 1 represented the baseline sample, and samples from days 2, 3 and 4 were obtained during bile acid administration. After the addition of nordeoxycholic acid (1 μg), bile acids were quantitatively extracted from portions of urine (3 mL) and plasma (1 mL) using Bond-Elut C18 cartridges. After liquid-solid extraction, isolation and separation of unconjugated and conjugated bile acids were achieved by lipophilic anion-exchange chromatography on Lipidex-DEAP. Solvolysis of bile acid conjugates and isolation of the hydrolyzed products were performed as described above, and bile acids were converted to volatile methyl ester-trimethylsilyl ether derivatives.
GC-MS analysis was performed using a Finnigan 4635 mass spectrometer (Finnigan Inc., San Jose, Calif.) that housed an identical gas chromatography column operated under the same conditions. Electron ionization (70 eV) mass spectra were recorded over the mass range of 50-800 daltons by repetitive scanning of the eluting components. Identification of bile acids was made on the basis of the gas chromatography retention index relative to a homologous series of n-alkanes, referred to as the methylene unit value, and the mass spectrum compared with authentic standards. Quantification of bile acids was achieved using gas chromatography by comparing the peak height response of the individual bile acids with the peak height response obtained from the internal standard.
Liquid secondary ionization mass spectrometry negative ion spectra of urine samples were obtained after placing approximately 1 μL of the methanolic extract onto a small drop of a glycerol/methanol matrix spotted on a stainless steel probe. This probe was introduced into the ion source of a VG Autospec Q mass spectrometer, and a beam of fast atoms of cesium, generated from cesium iodine (35 KeV), was fired at the target containing the sample. Negative ion spectra were obtained over the mass range of 50-1000 daltons.
Data are expressed as mean±SEM or as mean values of all animals when extracts were pooled before analysis. Results from different groups were compared using paired and unpaired two-tailed Student's t-test. P values of <0.05 were considered statistically significant.

[2] = tested on: Principal Bile Acids in Jejunum; assay: Bile acid composition of jejunum after oral administration (GC-MS); format: in vivo, Sprague-Dawley rats; conditions: for UDCA mass in jejunum / Chenodeoxycholic acid mass in jejunum / Cholic acid mass in jejunum / Cholic acid percent of jejunal bile acids / Deoxycholic acid mass in jejunum / Deoxycholic acid percent of jejunal bile acids / Lithocholic acid mass in jejunum / Lithocholic acid percent of jejunal bile acids / Total bile acid mass in jejunum / UDCA percent of jejunal bile acids / Δ^22-UDCA mass in jejunum / Δ^22-UDCA percent of jejunal bile acids / Δ^22-β-Muricholic acid mass in jejunum / Δ^22-ω-Muricholic acid mass in jejunum / α-Muricholic acid mass in jejunum / β-Muricholic acid mass in jejunum / ω-Muricholic acid mass in jejunum: oral gavage 250 mg/day, 4 days, mean ± SEM; for UDCA mass in jejunum: 24 hours after final dose; for Conjugation pattern of UDCA in jejunum: anion-exchange chromatography
Procedure: as §1
Intestinal contents were weighed and dissected into small pieces. In each group, feces (100 mg) from all animals were pooled on day 4 of the study and then ground into a fine paste. All samples were sonicated and sequentially refluxed in 80% methanol for 2 hours and chloroform/methanol (1:1) for 1 hour. Samples were taken to dryness, and the dried extracts were resuspended in 80% methanol (20 mL). Fractions of the methanolic extract (1/40 of intestinal contents and 1/20 of feces samples) were removed and the internal standard nordeoxycholic acid (10 μg) was added. This extract was diluted with 0.01 mol/L acetic acid (20 mL) and passed first through a column of Lipidex 1000 (bed size, 4×1 cm; Packard Instrument Co., Groningen, The Netherlands) and then through a Bond-Elut C18, cartridge (Analytichem, Harbor City, Calif.). Bile acids were recovered by elution of the Lipidex 1000 column and the Bond-Elut cartridge with methanol (20 mL and 5 mL, respectively), and the combined extracts were taken to dryness. Unconjugated bile acids were isolated and separated from neutral sterol and conjugated bile acids by lipophilic anion exchange chromatography on diethylaminohydroxypropyl Sephadex LH-20 (Lipidex-DEAP; Package Instrument Co.). Recovery of unconjugated bile acids was achieved by elution with 0.1 mol/L acetic acid in 72% ethanol (7 mL) followed by evaporation of the solvents. Total conjugated bile acids were recovered with 9 mL of 0.3 mol/L acetic acid in 72% ethanol, pH 9.6. Salts were removed by passage through a Bond-Elut C18 cartridge after addition of nordeoxycholic acid (10 μg), and conjugated bile acids were recovered by elution with 5 mL of methanol. Solvolysis was performed in a mixture of methanol (1 mL), distilled tetrahydrofuran (9 mL), and 1 mol/L trifluoracetic acid in dioxane (0.1 mL) and heated to 45° C for 2 hours. After solvolysis, unconjugated bile acids were isolated by chromatography on Lipidex-DEAP. Methyl ester derivatives were prepared by dissolving the sample in methanol (0.3 mL) and reacting with 2.7 mL of freshly distilled ethereal diazomethane. After evaporation of the reagents, the methyl ester derivatives were converted to trimethylsilyl ethers by the addition of […] of Tri-Sil reagent (Pierce Chemicals, Rockford, Ill.). A column of Lipidex 5000 (Packard Instrument Co.) was used to remove derivatizing reagents and to purify the sample.
Samples of liver (100 mg) were ground to a fine paste, and bile acids were extracted by reflux and passage through a column of Lipidex 1000 as described above for intestinal contents and feces. Group separation of bile acids, according to their mode of conjugation was achieved by lipophilic anion-exchange chromatography. […]

| Compound | Urinary excretion of sulfate conjugates of UDCA [1] [nmol/day] | Urinary unconjugated UDCA excretion [1] [nmol/day] | Δ^22 UDCA in jejunum (in words) ([2]; oral) | Chenodeoxycholic acid mass in jejunum [2] [mg] | Cholic acid mass in jejunum [2] | Cholic acid percent of jejunal bile acids [2] [%] | Deoxycholic acid mass in jejunum [2] [mg] | Deoxycholic acid percent of jejunal bile acids [2] [%] | Lithocholic acid mass in jejunum [2] [mg] | Lithocholic acid percent of jejunal bile acids [2] [%] | Total bile acid mass in jejunum [2] [mg] | UDCA percent of jejunal bile acids [2] [%] | Δ^22-UDCA mass in jejunum [2] [mg] | Δ^22-UDCA percent of jejunal bile acids [2] [%] | Δ^22-β-Muricholic acid mass in jejunum [2] [mg] | Δ^22-ω-Muricholic acid mass in jejunum [2] [mg] | α-Muricholic acid mass in jejunum [2] [mg] | β-Muricholic acid mass in jejunum [2] [mg] | ω-Muricholic acid mass in jejunum [2] [mg] | Conjugation pattern of UDCA in jejunum ([2]; oral) | other results |
| --- | --- | --- | --- | --- | --- | --- | --- | --- | --- | --- | --- | --- | --- | --- | --- | --- | --- | --- | --- | --- | --- |
| C[C@H](CCC(=O)O)[C@H]1CC[C@H]2[C@@H]3[C@@H](O)C[C@@H]4C[C@H](O)CC[C@]4(C)[C@H]3CC[C@]12C [UDCA, 3 alpha, 7 beta-dihydroxy-5 beta-cholan-24oic acid, reference compound] | 4.6 | 642.7 | detected in large proportions and amounts | 0.98 | 4.68 mg and 4.68 ± 0.65 mg | 16.8 | 1.56 | 5.6 | 0.26 | 1.0 | 27.77 | 35.9 | 4.00 | 14.5 | 0.85 | 0.30 | 0.75 | 4.12 | 0.31 | predominantly glyco- and tauro-UDCA, smaller amounts of unconjugated UDCA, and negligible amounts of sulfated UDCA | UDCA mass in jejunum [2]: 9.95 mg and 9.95 ± 0.49 mg |
| C[C@H](CCC(=O)O)[C@H]1CC[C@H]2[C@@H]3[C@@H](O)C[C@@H]4C[C@H](OS(=O)(=O)O)CC[C@]4(C)[C@H]3CC[C@]12C [UDCA-3S, ursodeoxycholic acid 3-sulfate] | 2.7 | 5.2 | detected in large proportions and amounts | 0.43 | 8.49 mg | 37.7 | 1.96 | 8.4 | 0.07 | 0.3 | 22.57 | 16.4 | 2.04 | 9.2 | 2.09 | 0.24 | 0.18 | 3.02 | 0.37 | substantial proportions of amidated UDCA | UDCA mass in jejunum ([2]; listed as UDCA 3-SULFATE): 3.67 mg; UDCA mass in jejunum ([2]; listed as UDCA 3-sulfate): 3.67 ± 0.45 mg; Change in proportion of cholic acid in jejunum (in words) ([2]; oral, vs control): decrease (P=0.05) in the proportion of cholic acid but to a lesser extent than UDCA |
| C[C@H](CCC(=O)O)[C@H]1CC[C@H]2[C@@H]3[C@@H](OS(=O)(=O)O)C[C@@H]4C[C@H](O)CC[C@]4(C)[C@H]3CC[C@]12C [UDCA-7S, ursodeoxycholic acid 7-sulfate] | 317.8 | 1.8 | – | 0.26 | 15.78 mg | 69.0 | 0.76 | 3.3 | 0.01 | 0.1 | 22.91 | 4.7 | 0.70 | 3.1 | 1.49 | 0.26 | 0.04 | 2.21 | 0.31 | – | UDCA mass in jejunum ([2]; listed as UDCA 7-SULFATE): 1.09 mg; UDCA mass in jejunum ([2]; listed as UDCA 7-sulfate): 1.09 ± 0.34 mg |
| C[C@H](CCC(=O)O)[C@H]1CC[C@H]2[C@@H]3[C@@H](OS(=O)(=O)O)C[C@@H]4C[C@H](OS(=O)(=O)O)CC[C@]4(C)[C@H]3CC[C@]12C [UDCA-DS, ursodeoxycholic acid 3,7-disulfate] | 217.1 | 1.3 | – | 0.12 | 6.78 mg | 66.0 | 0.5 | 5.2 | – | 0 | 10.24 | 2.0 | 0.21 | 2.1 | 0.34 | 0.12 | – | 1.70 | 0.24 | – | UDCA mass in jejunum ([2]; listed as UDCA 3,7-SULFATE): 0.21 mg; UDCA mass in jejunum ([2]; listed as UDCA 3,7-disulfate): 0.21 ± 0.07 mg |
